This is an account of results in patent US9512140B2, “(Thieno[2,3-b][1,5]benzoxazepin-4-yl)piperazin-1-yl compounds as dual activity H1 inverse agonists/5-HT2A antagonists” (priority 2011, dated 2016).

Where a name gives a salt, the structure may show the parent alone.

One series has as its target hERG Channel (Homo sapiens, UniProt Q12809). Put plainly: hERG channel. The text has this:
(§1) Further, the compounds of the invention may be tested in binding assays and functional activity assays by well known methods for other physiologically important receptors such as, but not limited to, the hERO channel, other serotonin receptors (specifically 5-HT1B, 5-HT1D, receptors, lack of agonist activity at 5-HT2B receptors, 5-HT2C, 5-HT5, 5-HT6, and 5-HT7 receptors), dopaminergic receptors (specifically D1, D2, and D3), GABAA receptors, adrenergic receptors and monoamine transporters.
For orientation: The hERG channel carries a current that helps repolarise heart muscle cells.

The next series concerns the target Norepinephrine Transport (Homo sapiens, UniProt P23975). Kind of series: Norepinephrine transporter binding.
Text: as §1

A further series has as its target Dopamine D1 (Homo sapiens, UniProt P21728). Put plainly: Dopamine D1 binding.
Text: as §1

A further series deals with Adrenergic alpha2B (Homo sapiens, UniProt P18089). Kind of series: Adrenergic alpha2B binding.
Sequence of Adrenergic alpha2B (P18089 whole entry): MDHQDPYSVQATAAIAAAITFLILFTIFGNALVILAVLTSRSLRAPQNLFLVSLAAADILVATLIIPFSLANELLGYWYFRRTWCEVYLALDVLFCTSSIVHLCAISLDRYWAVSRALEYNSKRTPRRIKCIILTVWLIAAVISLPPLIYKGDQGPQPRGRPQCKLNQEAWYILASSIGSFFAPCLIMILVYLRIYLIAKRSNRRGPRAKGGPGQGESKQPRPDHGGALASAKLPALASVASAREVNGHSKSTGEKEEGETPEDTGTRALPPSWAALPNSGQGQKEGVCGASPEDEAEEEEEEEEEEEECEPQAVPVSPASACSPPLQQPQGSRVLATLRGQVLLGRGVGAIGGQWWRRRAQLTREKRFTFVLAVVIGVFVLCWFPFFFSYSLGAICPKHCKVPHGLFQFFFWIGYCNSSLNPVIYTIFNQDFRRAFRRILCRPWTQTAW
Text: as §1

The target of the next series is 5-HT1D (Homo sapiens, UniProt P28221). Kind of series: 5-HT1D binding.
Sequence of 5-HT1D (P28221 whole entry, species assumed): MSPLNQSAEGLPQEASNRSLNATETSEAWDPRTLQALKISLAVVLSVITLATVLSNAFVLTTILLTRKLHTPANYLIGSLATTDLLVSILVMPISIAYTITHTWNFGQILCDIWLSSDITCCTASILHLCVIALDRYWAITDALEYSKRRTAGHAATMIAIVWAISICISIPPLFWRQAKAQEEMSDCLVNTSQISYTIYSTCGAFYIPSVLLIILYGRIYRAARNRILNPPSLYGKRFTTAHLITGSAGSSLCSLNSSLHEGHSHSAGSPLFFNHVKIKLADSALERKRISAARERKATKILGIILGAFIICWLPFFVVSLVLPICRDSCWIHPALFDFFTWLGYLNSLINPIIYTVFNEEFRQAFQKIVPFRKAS
Text: as §1

For series [1], the target named is T1, recombinant 5-HT2A receptor (human) (Homo sapiens, UniProt P28223).
T1 construct: expressed in transfected cells; host or cells: AV-12 (membranes)
T1 sequence (P28223 whole entry): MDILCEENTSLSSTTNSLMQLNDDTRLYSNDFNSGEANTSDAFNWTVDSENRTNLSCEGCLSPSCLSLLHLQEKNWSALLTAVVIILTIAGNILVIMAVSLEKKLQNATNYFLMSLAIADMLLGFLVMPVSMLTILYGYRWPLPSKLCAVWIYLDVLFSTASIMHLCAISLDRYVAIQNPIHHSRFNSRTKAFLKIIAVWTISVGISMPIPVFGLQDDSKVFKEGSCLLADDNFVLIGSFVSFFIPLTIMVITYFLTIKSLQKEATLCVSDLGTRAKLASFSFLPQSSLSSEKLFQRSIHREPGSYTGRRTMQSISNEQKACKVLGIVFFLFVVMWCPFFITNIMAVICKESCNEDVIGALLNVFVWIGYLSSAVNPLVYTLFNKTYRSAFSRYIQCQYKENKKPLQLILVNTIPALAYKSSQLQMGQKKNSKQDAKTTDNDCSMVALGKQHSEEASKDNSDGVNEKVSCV
Kind of series: 5-HT2A competition binding assay ([3H]-Ketanserin, SPA). The protocol:
[^3H]-Ketanserin binding experiments are carried out in SPA 96-well format. Membranes used in this assay are prepared from AV-12 cells stably expressing recombinant 5-HT2A receptor (human). The incubation is initiated by the addition of a mixture of WGA YSi SPA beads (1 mg/well, Perkin Elmer (MA, USA), RPNQ0011) and 2 μg membranes to assay buffer (67 mM Tris, 0.5 mM EDTA; pH 7.6) containing 3.1 nM [^3H]-Ketanserin and varying concentrations of the test compound (10 point concentration response curves). Non-specific binding is determined in the presence of 20 μM 1-(1-Naphthyl) piperazine. Samples are incubated for 4 hr. at room temperature (22° C.) and then read in a Microbeta Trilux.
Curves are evaluated using a 4-parameter logistic nonlinear equation to obtain the concentration of competitor causing 50% inhibition of radioligand binding (IC50). Equilibrium dissociation constants (Ki) are calculated according to the equation Ki=IC50/(1+L/Kd), where L equals the concentration of radioligand used in the experiment and Kd equals the equilibrium dissociation constant of the radioligand for the receptor, determined from standard saturation analysis or homologous competition experiments. Reported values for Ki, where n values are indicated, are shown as geometric mean±the standard error of the mean (SEM), with the number of replicate determinations indicated by n. […]

The next series deals with T2, 5-HT2A receptor (Mus musculus, UniProt P35363).
T2 construct: from tissue; host or cells: living C57BL/6J mice
T2 sequence (P35363 whole entry): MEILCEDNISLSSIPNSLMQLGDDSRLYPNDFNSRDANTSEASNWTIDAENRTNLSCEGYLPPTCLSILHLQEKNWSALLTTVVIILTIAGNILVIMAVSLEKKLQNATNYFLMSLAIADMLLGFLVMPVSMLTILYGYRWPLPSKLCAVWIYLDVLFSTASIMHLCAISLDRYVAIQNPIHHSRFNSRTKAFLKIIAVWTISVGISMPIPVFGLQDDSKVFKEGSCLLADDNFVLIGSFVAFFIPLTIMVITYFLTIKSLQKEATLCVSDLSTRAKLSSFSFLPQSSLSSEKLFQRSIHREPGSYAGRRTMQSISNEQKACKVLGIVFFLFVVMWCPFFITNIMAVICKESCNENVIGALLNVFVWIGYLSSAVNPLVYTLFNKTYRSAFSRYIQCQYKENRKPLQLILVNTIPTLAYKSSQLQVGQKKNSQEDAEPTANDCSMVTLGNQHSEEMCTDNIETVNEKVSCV
Kind of series: Inhibition of DOI induced headshake activity. In kind it is in vivo. To be noted: 10 mg/kg PO, mice, DOI 3 mg/kg, read-out: inhibition of DOI induced headshake response. The protocol:
(see for example Bartoszyk G D, van Amsterdam C, Böttcher H, Seyfried C A. EMD 281014, a new selective serotonin 5-HT2A receptor antagonist. Eur J Pharmacol. 2003 473: 229-230.) Briefly, male C57BL/6J mice (20-25 g, Charles River) are housed in standard housing conditions (32 mice in a large IVC cage, 07.00 to 19.00 light phase, constant temperature (19-23° C.) and humidity (50%+/−10), ad lib food and water). Mice received either vehicle (0.25% Methyl cellulose), DOI (3 mg/kg in saline) or test compound at 10 mg/kg PO plus DOI (3 mg/kg in saline). Test compounds are individually evaluated in groups of four per experiment with n=4 for each compound, together with vehicle and DOI+vehicle (n=8). After a test compound pre-treatment time of 60 min. the mice receive either vehicle (saline) or 3 mg/kg DOI dosed subcutaneously, and are then placed into clear perspex observation chambers. […] The data is analyzed using an ANOVA and post-hoc Dunnet's Test. The compound of example 2 is tested essentially as described and is found to inhibit the DOI induced headshake response at 100% at 10 mg/kg.

The nature of another series: Plasma clearance, dog. Format: in vivo. The following applies: male, Beagle, 1 mg/kg, intravenous, 1 mL/kg of 1.0 mg/mL. How it is done:
Male Beagle dogs (body weight range 10-12 kg) are obtained from Marshall Bioresources, USA. Test compound is administered intravenously in solution (1 mL/kg) in 20% Captisol® in 22.5 mM phosphate buffer, pH 2, at a final drug concentration of 1.0 mg/mL (free base equivalents). Blood samples are obtained from the jugular vein over 24 hr. Samples of plasma are obtained by centrifugation and stored frozen (−20° C.) prior to analysis. Frozen plasma samples are thawed to room temperature for bioanalysis of concentrations of test compound. A related internal standard compound in acetonitrile/methanol (1:1, v/v) is added to all samples of plasma (1:1, v/v). The samples are centrifuged to remove precipitated protein prior to analysis. The supernatants are analysed by injection and rapid gradient elution on a Javelin Betasil C18 column (20×2.1 mm cartridge, Mobile phase A: Water/1 M NH4HCO3, 2000:10 v/v, Mobile Phase B: MeOH/1 M NH4HCO3, 2000:10 v/v). The eluted analytes are detected by LC-MS-MS analysis using a Sciex API 4000 triple quadrupole mass spectrometer. Concentrations of compound are determined from standards prepared and analysed under identical conditions. Clearance is calculated using non-compartmental analysis in Watson 7.4, Thermo Fisher Scientific, Inc.

A word on the Ki: it is the dissociation constant of the complex between target and ligand, obtained from inhibition or displacement. One may read the inhibition as how much of the control response was suppressed. What is called clearance is the volume of plasma or blood freed of the substance per unit of time. The low end stands for inefficient removal, the high end for efficient removal.

Sequence of hERG Channel (Q12809 whole entry): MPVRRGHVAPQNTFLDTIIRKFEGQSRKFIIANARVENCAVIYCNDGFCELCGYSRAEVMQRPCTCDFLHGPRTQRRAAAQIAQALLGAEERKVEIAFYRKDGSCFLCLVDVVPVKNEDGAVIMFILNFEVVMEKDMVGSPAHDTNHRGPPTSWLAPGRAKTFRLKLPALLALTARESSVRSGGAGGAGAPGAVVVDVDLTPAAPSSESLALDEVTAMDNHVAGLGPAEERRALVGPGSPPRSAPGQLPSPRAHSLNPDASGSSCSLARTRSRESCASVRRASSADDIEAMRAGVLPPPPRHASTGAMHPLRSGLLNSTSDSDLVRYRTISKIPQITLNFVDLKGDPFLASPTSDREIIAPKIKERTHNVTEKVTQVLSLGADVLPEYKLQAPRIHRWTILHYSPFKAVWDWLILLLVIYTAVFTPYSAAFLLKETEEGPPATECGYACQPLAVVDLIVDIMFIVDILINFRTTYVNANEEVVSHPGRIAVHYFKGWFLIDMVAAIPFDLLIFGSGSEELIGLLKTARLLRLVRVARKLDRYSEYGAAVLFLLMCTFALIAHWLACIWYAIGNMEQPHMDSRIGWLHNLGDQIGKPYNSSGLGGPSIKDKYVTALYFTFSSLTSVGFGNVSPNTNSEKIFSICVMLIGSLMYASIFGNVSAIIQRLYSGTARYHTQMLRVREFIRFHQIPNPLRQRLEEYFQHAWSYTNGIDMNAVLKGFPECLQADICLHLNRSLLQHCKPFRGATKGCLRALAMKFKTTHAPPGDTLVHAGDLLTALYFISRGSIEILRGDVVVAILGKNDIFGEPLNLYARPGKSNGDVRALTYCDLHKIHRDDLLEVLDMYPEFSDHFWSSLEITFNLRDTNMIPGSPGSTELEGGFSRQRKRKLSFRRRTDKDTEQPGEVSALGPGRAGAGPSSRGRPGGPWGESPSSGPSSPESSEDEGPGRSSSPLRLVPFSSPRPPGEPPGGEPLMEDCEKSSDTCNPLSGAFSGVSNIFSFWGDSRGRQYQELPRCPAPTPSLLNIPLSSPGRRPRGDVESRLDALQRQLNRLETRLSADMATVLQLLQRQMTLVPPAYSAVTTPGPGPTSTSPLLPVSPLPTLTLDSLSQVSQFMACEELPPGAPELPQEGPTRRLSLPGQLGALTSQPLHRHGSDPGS
Sequence of Dopamine D1 (P21728 whole entry): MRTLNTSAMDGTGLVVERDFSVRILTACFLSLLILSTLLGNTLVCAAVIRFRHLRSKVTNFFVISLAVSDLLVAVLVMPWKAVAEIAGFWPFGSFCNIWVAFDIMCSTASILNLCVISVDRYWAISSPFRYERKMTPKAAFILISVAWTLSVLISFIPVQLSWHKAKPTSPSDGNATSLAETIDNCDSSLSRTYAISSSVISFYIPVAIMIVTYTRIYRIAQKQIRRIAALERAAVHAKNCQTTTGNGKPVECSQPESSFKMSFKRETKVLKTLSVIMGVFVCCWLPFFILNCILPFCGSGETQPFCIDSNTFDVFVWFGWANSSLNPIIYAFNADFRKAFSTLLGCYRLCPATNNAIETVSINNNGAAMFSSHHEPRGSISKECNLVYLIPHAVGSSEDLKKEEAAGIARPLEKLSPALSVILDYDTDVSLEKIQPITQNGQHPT
Sequence of Norepinephrine Transport (P23975 whole entry): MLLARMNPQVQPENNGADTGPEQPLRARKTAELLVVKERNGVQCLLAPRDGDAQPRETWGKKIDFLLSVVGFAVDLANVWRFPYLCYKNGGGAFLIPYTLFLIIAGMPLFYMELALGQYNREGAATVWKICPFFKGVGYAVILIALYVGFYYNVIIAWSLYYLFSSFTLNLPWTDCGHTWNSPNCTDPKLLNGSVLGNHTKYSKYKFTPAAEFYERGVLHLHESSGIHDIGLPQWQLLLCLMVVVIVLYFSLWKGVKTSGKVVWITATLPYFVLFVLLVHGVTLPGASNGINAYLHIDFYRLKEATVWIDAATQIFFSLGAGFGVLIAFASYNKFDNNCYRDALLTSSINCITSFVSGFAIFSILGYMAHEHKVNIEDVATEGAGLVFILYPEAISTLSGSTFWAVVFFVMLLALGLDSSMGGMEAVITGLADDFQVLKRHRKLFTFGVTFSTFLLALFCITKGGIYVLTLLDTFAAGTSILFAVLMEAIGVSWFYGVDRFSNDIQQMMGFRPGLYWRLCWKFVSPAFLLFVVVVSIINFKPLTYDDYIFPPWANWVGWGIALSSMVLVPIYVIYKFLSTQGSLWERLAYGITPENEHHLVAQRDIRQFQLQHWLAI

As for `Cc1ccc2c(c1)Oc1sc(C)cc1C(N1CCN(CC(C)(C)C(=O)O)CC1)=N2` [Example 2, 3-[4-(2,8-Dimethylthieno[2,3-b][1,5]benzoxazepin-4-yl)piperazin-1-yl]-2,2-dimethyl-propanoic acid dihydrochloride], the “hERG Channel” value at hERG Channel is more than 100 µM. Also, the inhibition constant Ki was more than 0.674 µM on Norepinephrine Transport; 2.35 µM at Dopamine D1; 3.71 µM on Adrenergic alpha2B; more than 3.98 µM at 5-HT1D; 0.0113 µM in series [1]. For the same compound, on 5-HT2A receptor, the inhibition at 10 mg/kg was found to be 100%. In “Plasma clearance, dog”, this compound came in with a clearance of 2.8 mL/min/kg.
